Results as given in patent US20240270771A1, “Compound containing phosphate group, pharmaceutical composition containing same, preparation method therefor and use thereof” (SHANGHAI RAISING PHARMACEUTICAL CO., LTD., priority 2021, published 2024).

Experiments:
[1] = test system: memory reproduction disorder model induce by ethanol; experiment: Dark avoidance test, memory reproduction disorder model induced by ethanol; format: in vivo, ICR mice; settings: 45% ethanol 0.1 mL/10 g gavage, compound 200 mg/kg gavage once a day 3 weeks; for Number of errors: model group 2.4 ± 1.7; for Latency period: model group 118.4 ± 106.9
Protocol: The mice employed in the present test were purchased from Xipuer-BIKAI Laboratory Animal Co., Ltd., and they were SPF grade ICR mice, 3-4 weeks old, weighing 16-18 g.
Anhydrous ethanol: Shanghai Titan Technology Co., Ltd.; Product No.: G73537B; Purity: >99.7%.
Test article preparation: 100 mg of the compound to be tested was weighed and added to 10 mL of 0.7% CMC-Na to prepare a 10 mg/mL suspension for use.
The laboratory mice were randomly divided into groups (9 or 10 mice per group). The mice in each group were administrated at a dosage of 0.2 mL/10 g body weight by oral gavage once a day for three weeks.
The laboratory mice animals were administered by gavage for three weeks. One hour after the last administration, they were trained with the YLS-17B dark avoidance tester. The test was performed 24 h later. A 45% ethanol solution (0.1 mL/10 g) was administered by oral gavage 30 min before the test. The latency period (the time from the start of counting to the first time of entering the dark compartment) and the number of errors (number of electric shocks) of the animals were recorded.
The activity box of the dark avoidance automatic tester comprises two compartments (bright and dark), there is a hole between the two compartments, the bottom of the box is covered by a copper grid, and the animals normally go into the dark compartment. Before the formal test, the laboratory mice were trained by placing the animals in the bright compartment with their backs facing the entrance of the hole, to get familiar with the environment for 5 min, and then the copper grid in the dark compartment was electrified for stimulation at a voltage of 50 V and a current of 1.00 mA (which can be adjusted according to the actual situation). When the animals received electric shock, they entered the bright compartment, or went back and forth between the two compartments. The current was continuously applied for 5 min, which served as the training process.
Testing: the mice modeled with ethanol were put into the bright box one by one with their backs facing the entrance of the hole, and the time interval between putting each animal was 5 s. After the first animal was put into the bright compartment, the electricity was applied immediately. The electricity was applied for 6 min. At the end of applying electricity, data were printed, and the latency period (the time from the start of counting to the first time of entering the dark compartment) and the number of errors (the number of electric shock during the testing period) were recorded. Due to the different time of putting the animal in, the time difference can be subtracted according to the actual time of putting the animal.
Statistical analysis: all data were expressed as the mean value±standard deviation, and SPSS software was used for analysis.

[2] = test system: APP/PSi 2×Tg mice; experiment: Water maze behavior test; format: in vivo; settings: 200 mg/kg oral gavage once a day, 8 weeks; for The number of crossing the platform: test day 6, model group 0.9 ± 0.6; for Time in the target quadrant: test day 6, model group 12.8 ± 2.9, in s
Description: Rodents in water have a strong incentive to escape from the water environment, and can escape from the water environment in the fastest and most direct way. The process of learning to escape from the water environment reflects the learning ability of the animals. Spatial positioning according to the surrounding environment and purposefully swimming to a safe place in the water (such as a platform) can reflect the spatial learning and memory ability of the animals.
The test animals were APP/PSi 2×Tg mice (C57BL/6 wild-type mice as the blank control). Mice of 6-8 months old, weighing 20-40 g, were purchased from The Jackson laboratory.
APP/PSi mice are APP/PSi di-transgenic Alzheimer's disease (2×Tg-AD) model mice, and the appearance of deposition of Aβ is earlier than the pathological changes of tau protein for several months, which can more truly simulate the clinical process and pathological changes of Alzheimer's disease.
Preparation of 0.7% CMC-Na: 0.7 g CMC-Na was added with a proper amount of water, heated for dissolution, left for cooling to room temperature, diluted to 100 mL, and stored at 4° C.
Preparation of BTMP: 100 mg of BTMP was added to 10 mL of 0.7% CMC-Na to prepare a 10 mg/mL suspension for use.
Preparation of test compound and comparative compound 1: 100 mg of the compound to be tested was weighted and added to 10 mL of 0.7% CMC-Na to prepare a 10 mg/mL suspension for use.
The laboratory mice were randomly divided into groups (9 or 10 mice per group). Mice in each group were administrated at a dosage of 0.2 mL/10 g body weight by oral gavage once a day for eight weeks.
The mice in the blank control group, model group and test group were orally administrated for 8 consecutive weeks according to the above administration dosage/specification. The water maze training and test were started in the last week of administration. The water maze training and test lasted for six days, with a training period of five days and a testing period of one day. In addition, during the training and testing period of water maze (6 days in total), the indoor conditions such as lighting etc. were kept consistent, the room was kept quiet, and the interference from the environment and personnel was excluded.
2.1. Preparation before the test: a proper amount of water was put into the water maze pool with the water temperature being kept at 22±3° C. The platform was placed in a fixed position (target quadrant) and 1 cm below the water surface, and titanium dioxide was added until the water became white, so that the platform could not be seen clearly.
2.2. Training period (days 1 to 5): on each day, before the first quadrant training, each mouse was placed on the platform for 15 s (to increase the mice's sense of security on the platform), and then the mouse was put into the pool (with its head facing the pool wall) from the quadrant where the platform located, and the swimming time was set as 60 s. If the mouse found the platform within 60 s and stayed for 5 s, it was regarded as the platform being found successfully. If the mouse could not find the platform, then the time was recorded as 60 s. The mouse was guided to the platform and stayed for 20 s, the mouse was then taken out, and the quadrant training for this mouse was ended.
After the first quadrant training, the mouse was trained in the remaining three quadrants sequentially, where it is not necessary to place the mouse on the platform for 15 s before training. The training of each mouse in every two quadrants was conducted at an interval of 10-15 minute. In this way, the training was performed continuously for 5 days.
2.3. Testing period (day 6): 24 hours after the last training, the platform was removed, and the mouse was dropped at the position opposite to the quadrant where the platform previously located (i.e., the position furthest away from the platform). […]

[3] = test day 6, model group 45.0 ± 8.8

SMILES	Number of errors [1]	Latency period [1]	The number of crossing the platform [2]	Time in the target quadrant [2]	Latency period ([2]; test day 6, model group 45.0 ± 8.8, 200 mg/kg)	Latency period ([2]; test day 6, model group 45.0 ± 8.8, listed as compound 1, 200 mg/kg)	Latency period [2, 3]
CCCC(CCC)C(=O)S/C(CCOP(=O)(O)O)=C(/C)N(C=O)Cc1cnc(C)nc1N [Compound 1, (Z)—S-(2-(N-((4-amino-2-methylpyrimidin-5-yl)methyl)formamido)-5-(phosphonooxy)pent-2-en-3-yl) 2-propylpentanethioate]	1.0 ± 1.25	229.8 ± 90.0 s	2.4 ± 0.8	19.6 ± 3.4	22.0 ± 1.5 s	22.0 ± 1.5 s	–
CCC(CC)C(=O)S/C(CCOP(=O)(O)O)=C(/C)N(C=O)Cc1cnc(C)nc1N [Compound 2, (Z)—S-(2-(N-((4-amino-2-methylpyrimidin-5-yl)methyl)formamido)-5-(phosphonooxy)pent-2-en-3-yl) 2-ethylbutanethioate]	1.2 ± 1.3	217.4 ± 96.6 s	2.2 ± 0.6	18.8 ± 2.6	–	–	22.7 ± 1.1 s
C/C(=C(\CCOP(=O)(O)O)SC(=O)c1ccco1)N(C=O)Cc1cnc(C)nc1N [Compound 9, (Z)—S-(2-(N-((4-amino-2-methylpyrimidin-5-yl)methyl)formamido)-5-(phosphonooxy)pent-2-en-3-yl) furan-2-carbothioate]	1.0 ± 1.0	216.1 ± 76.8 s	2.3 ± 0.5	18.6 ± 1.6	–	–	22.8 ± 1.3 s
